{
  "source": "patent US9878006B2",
  "about": "“Treatment of obesity and obesity related disorders by pharmalogical targeting of Kv1.3 potassium channels” (The Regents of the University of California, priority 2011, dated 2018)",
  "key": {"[1]": {"experiment": "diet-induced obesity model in mice (high fat/high fructose diet): weight gain and blood glucose", "assay_type": "in vivo, C57BL/6 mice", "conditions": "20, 100 or 500 μg/kg s.c. on alternate days", "procedure": "The accompanying figures show the obesity-deterring efficacy of ShK-186 in the diet-induced obesity model in C57BL/J mice (diet composed of 21% fat+60% fructose-water). 8 week old C57BL/6 mice were purchased from Harlan Co. (Indianapolis, Ind.). They were fed a specialized high fat diet (#TD88137; 21% fat) purchased from Harlan Co. (Indianapolis, Ind.), and they received a 60% fructose solution to drink. The mice were administered vehicle (P6N) or ShK-186 (20, 100 or 500 μg/kg) by subcutaneous injections on alternate days. Animals were weighed on alternate days. Blood glucose levels were monitored every 6 days by tail-vein sampling using an Accu-Chek compact glucometer from Roche. The animal experimental protocol was approved by the Institutional Animal Care and Use Committee at University of California, Irvine.\nAll mice received the high fat/high fructose diet throughout the trial. They received vehicle (P6N) or ShK-186 (20, 100 or 500 μg/kg) on alternate days by subcutaneous injection. The weight is normalized to the average weight at the start of the study. All the mice in this study were males. Using repeated measures ANOVA, the p value <0.0001 for all the ShK-186 doses."}, "skeletal muscle": {"system": "skeletal muscle", "experiment": "PET imaging, 18FDG uptake by skeletal muscle", "assay_type": "in vivo, mice", "conditions": "FIG. 7", "procedure": "(§1) ^18F-FDG was purchased from PETNET. Mice were fasted overnight before CT or PET scan. For PET scan animals were injected with 0.1-0.2 mCi of ^18F-FDG in sterile saline. Approximately, 0.02 to 0.05 ml was administered intravenously (tail vein) under 2% Isoflurane and animal was allowed to remain awake for 60 mins in their cages to allow distribution and uptake of ^18F-FDG. During the scan 2% isoflurane was used and the mouse was laid in the supine position on the scanner. All PET acquisitions were performed with an Inveon (Siemens Medical Solutions) preclinical PET scanner. PET data was acquired for 30 min. When used with PET scanner CT data was obtained immediately after PET imaging without changing the position of the animal. PET images were corrected for attenuation, scatter, randoms, and dead time. Images were reconstructed as 128×128 matrices using a fast MAP algorithm with a smoothing factor of 0.1. CT HU of BAT and WAT was obtained by calibrating the CT data using linear interpolation of water CT Density (CT HU=0) and air CT density (CT HU=−1000). After the scan procedure, animals were allowed to recover from anesthesia, placed in their cages and monitored for normal recovery.\n(§2) All scanning data was acquired in full list mode and sorted into a single frame, 3 dimensional sinogram, which was rebinned using a Fourier rebinning algorithm. […]"}, "white adipose tissue": {"system": "white adipose tissue", "experiment": "CT scan of white adipose tissue in the diet-induced obesity model", "assay_type": "in vivo, C57BL/6 mice", "conditions": "500 μg/kg; after 45 days on high fat/high fructose diet; vs vehicle; p=0.000708; FIG. 3A/3B", "procedure": "Mice were fasted overnight before CT scans. All CT acquisitions were performed with an Inveon (Siemens Medical Solutions) preclinical CT scanner. During the scan 2% isoflurane was used and the mouse was laid in the supine position on the scanner. Images were reconstructed as 128×128 matrices using a fast MAP algorithm with a smoothing factor of 0.1. CT HU of WAT was obtained by calibrating the CT data using linear interpolation of water CT Density (CT HU=0) and air CT density (CT HU=−1000). After the scan procedure, animals were allowed to recover from anesthesia, placed in their cages and monitored for normal recovery. All scanning data was acquired in full list mode and sorted into a single frame, 3 dimensional sinogram, which was rebinned using a Fourier rebinning algorithm. The images were reconstructed using 2 dimensional filter back projection using a Hanning Filter with a Nyquist cut off at 0.5, and corrected for attenuation using the Co-57 attenuation scan data. All CT Data analysis was done using PMOD 3.0 software."}, "brown adipose tissue": {"system": "brown adipose tissue", "experiment": "PET scan, 18FDG uptake by brown adipose tissue", "assay_type": "in vivo, mice", "procedure": "as §1, §2"}, "[2]": {"experiment": "CLAMS metabolic cages: feeding, drinking, RER, energy expenditure", "assay_type": "in vivo, mice", "excerpt": "FIGS. 4A through 4D show feeding and drinking patterns of mice analyzed in negative-flow CLAMS (Comprehensive Lab Animal Monitoring system) metabolic cages. All the animals were habituated with the high fat/high fructose diet for at least 7 days prior to the metabolic cage studies. All animals were placed individually in each metabolic cage and habituated for two days under normal 12 hr. light-dark cycle.\nMice were acclimated for 2 days in the metabolic cages before the measurements were made.\nFIGS. 5A through 5D show Respiratory Exchange Ratio (RER) and energy expenditure in vehicle controls (n-2) and ShK-186-treated mice (n=2). RER of 0.70 is when a subject is metabolizing pure fat, whereas RER of 1.0 is when a subject is metabolizing pure carbohydrate."}, "[3]": {"system": "brown adipose tissue cells", "conditions": "potassium channel blockade; cited from earlier work"}, "brown fat [4]": {"system": "brown fat", "conditions": "man; 1 mg/kg; cited from earlier work"}, "brown fat [5]": {"system": "brown fat", "conditions": "rats; 5 mg/kg body wt; cited from earlier work"}, "[6]": {"conditions": "n=2, vs vehicle controls, FIG. 5A-5D"}},
  "note": "Where two headings read alike, the source gives them in different places.",
  "data": [
    {"compound": "p-phospho-Tyr-AEEAc-Arg-Ser-Cys-Ile-Asp-Thr-Ile-Pro-Lys-Ser-Arg-Cys-Thr-Ala-Phe-Gln-Cys-Lys-His-Ser-Met-Lys-Tyr-Arg-Leu-Ser-Phe-Cys-Arg-Lys-Thr-Cys-Gly-Thr-Cys [ShK-186]", "values": [
      {"measurement": "blood glucose levels", "setting": "[1]; measured every 6 days, FIG. 1B", "value": "without changing blood glucose levels"},
      {"measurement": "weight gain", "setting": "[1]; vs vehicle, dose-dependent, p<0.0001 for all doses, FIG. 1A", "value": "significantly reduced weight gain"},
      {"measurement": "18FDG uptake by skeletal muscle", "setting": "skeletal muscle; ShK-186 at 20, 100 and 500 μg/kg", "value": "increased ^18FDG uptake by skeletal muscle"},
      {"measurement": "volume of white adipose tissue", "setting": "white adipose tissue", "value": "significantly reduced the volume of white adipose tissue"},
      {"measurement": "18FDG uptake by brown adipose tissue", "setting": "brown adipose tissue; ShK-186 at 100 and 500 μg/kg, FIG. 6A", "value": "induces ^18FDG-uptake by brown adipose tissue"},
      {"measurement": "feeding and drinking pattern", "setting": "[2]; given at onset of the measuring phase, controls feed and drink in dark cycle only, p<0.05 after first 24 hrs, FIG. 4A-4D", "value": "feed and drink during both dark and light cycles"},
      {"measurement": "Respiratory Exchange Ratio (RER), substrate metabolized", "setting": "[2]; n=2, especially during the light cycle, FIG. 5A-5D", "value": "metabolize more carbohydrate than fat"},
      {"measurement": "energy expenditure during the day", "setting": "[2]; [6]", "value": "greater energy expenditure during the day"},
      {"measurement": "energy expenditure during the night", "setting": "[2]; [6]", "value": "roughly equivalent energy expenditure during the night"}
    ]},
    {"compound": "CC[N+](CC)(CC)CC", "note": "[tetraethylammonium]", "values": [
      {"measurement": "metabolic response of brown adipose tissue cells to adrenergic stimulation", "setting": "[3]", "value": "does not alter the metabolic response of brown adipose tissue cells to adrenergic stimulation"}
    ]},
    {"compound": "CC(C)NCC(O)COc1cccc2ccccc12", "note": "(centres unmarked) [propranolol, reference compound]", "values": [
      {"measurement": "18-fluoro-deoxyglucose uptake into brown fat", "setting": "brown fat [4]", "value": "has the same effect"},
      {"measurement": "inhibition of ShK-186-increased 18FDG uptake by skeletal muscle", "setting": "skeletal muscle; propranolol 5 mg/kg", "value": "did not inhibit this uptake"},
      {"measurement": "18-fluoro-deoxyglucose uptake into brown fat", "setting": "brown fat [5]", "value": "eliminates ^18-fluoro-deoxyglucose uptake into brown fat"},
      {"measurement": "inhibition of 18FDG uptake by brown adipose tissue", "setting": "brown adipose tissue; propranolol 5 m/kg, FIG. 6B", "value": "inhibited"}
    ]}
  ]
}
